From the NIST ThermoML archive (doi:10.1021/je201080c)
± gives the expanded uncertainty stated by the source.

Legend:
[1] = refractive index (Na D-line) (dimensionless); settings: 101.33 kPa, Liquid, Standard Abbe refractometry
[2] = for viscosity / mass density: 101.33 kPa, Liquid; for viscosity: Surface Light Scattering; for mass density: Vibrating tube method; for surface tension liquid-gas: Pendant drop shape

For `CCn1cc[n+](C)c1.N#C[B-](C#N)(C#N)C#N` [1-ethyl-3-methylimidazolium tetracyanoborate], the refractive index ([1]; 283.15 K) was 1.4533 ± 0.0012, the refractive index ([1]; 293.15 K) was 1.4499 ± 0.0012 and the refractive index ([1]; 303.15 K) was 1.4465 ± 0.0012. It also gave a refractive index ([1]; 313.15 K) of 1.4432 ± 0.0012, a viscosity ([2]; 283.15 K) of 37.06 ± 1.2 mPa·s and a mass density ([2]; 283.15 K) of 1048.33 ± 0.95 kg/m3. It also gave a viscosity ([2]; 288.15 K) of 27.75 ± 0.93 mPa·s, a mass density ([2]; 288.15 K) of 1044.31 ± 0.95 kg/m3 and a viscosity ([2]; 293.15 K) of 21.79 ± 0.71 mPa·s. The mass density ([2]; 293.15 K) was 1040.31 ± 0.94 kg/m3, the surface tension liquid-gas ([2]; 297.04 K) was 47.09 ± 1.1 mN/m and the mass density ([2]; 298.15 K) was 1036.34 ± 0.93 kg/m3. The viscosity ([2]; 303.15 K) was 14.65 ± 0.48 mPa·s, the mass density ([2]; 303.15 K) was 1032.4 ± 0.92 kg/m3 and the mass density ([2]; 308.15 K) was 1028.48 ± 0.92 kg/m3. The surface tension liquid-gas ([2]; 313.15 K) was 43.29 ± 1 mN/m, the viscosity ([2]; 313.15 K) was 10.09 ± 0.33 mPa·s and the mass density ([2]; 313.15 K) was 1024.59 ± 0.91 kg/m3. For the same molecule, the mass density ([2]; 318.15 K) was 1020.72 ± 0.9 kg/m3, the surface tension liquid-gas ([2]; 323.15 K) was 41.6 ± 1 mN/m and the viscosity ([2]; 323.15 K) was 7.61 ± 0.24 mPa·s. For the same molecule, the mass density ([2]; 323.15 K) was 1016.87 ± 0.89 kg/m3, the mass density ([2]; 328.15 K) was 1013.06 ± 0.89 kg/m3 and the surface tension liquid-gas ([2]; 333.15 K) was 39.53 ± 0.95 mN/m. It also gave a viscosity ([2]; 333.15 K) of 5.77 ± 0.18 mPa·s, a mass density ([2]; 333.15 K) of 1009.26 ± 0.88 kg/m3 and a mass density ([2]; 338.15 K) of 1005.49 ± 0.87 kg/m3. The surface tension liquid-gas ([2]; 343.15 K) was 38.33 ± 0.92 mN/m, the viscosity ([2]; 343.15 K) was 4.67 ± 0.15 mPa·s and the mass density ([2]; 343.15 K) was 1001.74 ± 0.87 kg/m3. The mass density ([2]; 348.15 K) was 998.01 ± 0.86 kg/m3, the surface tension liquid-gas ([2]; 353.15 K) was 36.52 ± 0.88 mN/m and the viscosity ([2]; 353.15 K) was 3.7 ± 0.12 mPa·s. For the same molecule, the mass density ([2]; 353.15 K) was 994.28 ± 0.86 kg/m3, the mass density ([2]; 358.15 K) was 990.59 ± 0.85 kg/m3 and the surface tension liquid-gas ([2]; 363.15 K) was 35.8 ± 0.86 mN/m. It also gave a viscosity ([2]; 363.15 K) of 3.16 ± 0.1 mPa·s and a mass density ([2]; 363.15 K) of 986.92 ± 0.85 kg/m3.
